Test [1] has as its system LN229 R132H cells overexpressing mutated isocitrate dehydrogenase (mIDH). The test is described as follows: Mutant IDH1 cellular assay (2-HG levels in medium). It counts as cell-based. To be noted: 2-HG in medium of LN229 R132H cells, 24 hours incubation, fluorescence readout. On the procedure:
Mutant IDH1 Cellular Assay
Levels of (2R)-2-hydroxyglutarate (2HG) were measured in medium of a cell line with overexpression of mutated isocitrate dehydrogenase (mIDH) protein. mIDH catalyzes the NADPH-dependent reduction of alpha-ketoglutarate to 2-HG. Cells (LN229 R132H, Mohrenz et al., Apoptosis (2013) 18:1416-1425) were grown in DMEM containing 10% FCS. They were harvested by trypsin and seeded into 96-well plates. Cells were incubated overnight at 37° C. in 5% CO2. The next day test compounds were added to each cell well. The final concentration of DMSO was 0.1% and DMSO controls were included. The plates were then placed in an incubator for 24 hours.
2-HG was measured according to Balss et al. (Acta Neuropathol (2012) 124: 883-891). Briefly, HClO4 was added to each well and the plates were centrifuged. Aliquots are removed and incubated with hydroxyglutarate dehydrogenase (HGDH), diaphorase, NAD+, and resazurin. The conversion of resazurin to resorufin was detected by fluorescence spectroscopy at Ex 540 nm Em 600 nm. The increase in fluorescence is proportional to 2-HG production. IC50 values are determined by interpolation from plots of relative fluorescence vs inhibitor concentration.

In a further test the target is IDH1 R132H enzyme (Homo sapiens (Human), UniProt O75874, R132H). The experiment in a line: Mutant IDH1 R132H biochemical assay. Also: 1.5 nM enzyme. The following applies: NADPH consumption, luminescent readout, 250 μM α-KG, 1 μM NADPH, 32° C., 30 minutes, test range 0.002-10 μM. On the procedure:
mIDH1 catalyzes the NADPH-dependent reduction of alpha-ketoglutarate (α-KG) to (2R)-2-hydroxyglutarate (2-HG). NADPH consumption was measured by luminescent readout.
The biochemical reactions were performed at 32° C. in 384-well plates using a reaction volume of 41 μl and the following assay buffer conditions: 50 mM Tris pH 7.5, 100 mM NaCl, 20 mM MgCl2, 0.05% BSA, 0.01% Brij, 1 μM NADPH, and 250 μM α-KG. […] Test compounds were used in a concentration range between 0.002 and 10 μM. The final DMSO concentration was 2.4%.
The reaction was incubated for 30 minutes, then 40 μl of detection mix (0.75 μg/ml Luciferase, 0.02 U/ml Oxidoreductase, 4 μg/ml FMN, 2 μl/ml Decanal/Ethanol, 50 mM Tris pH 7.5, 0.5% Glycerin, 0.01% Tween-20, 0.05% BSA) was added. Luminescence was measured on a luminescent reader (10 seconds measuring time, 1 second integration period, 30% sensitivity). The decrease in luminescence is proportional to mIDH1 activity. IC50 values are determined by interpolation from plots of relative luminescence versus inhibitor concentration.

As a reminder, the IC50 is the concentration that gives 50% inhibition.

Sequence of IDH1 R132H enzyme (O75874 whole entry R132H): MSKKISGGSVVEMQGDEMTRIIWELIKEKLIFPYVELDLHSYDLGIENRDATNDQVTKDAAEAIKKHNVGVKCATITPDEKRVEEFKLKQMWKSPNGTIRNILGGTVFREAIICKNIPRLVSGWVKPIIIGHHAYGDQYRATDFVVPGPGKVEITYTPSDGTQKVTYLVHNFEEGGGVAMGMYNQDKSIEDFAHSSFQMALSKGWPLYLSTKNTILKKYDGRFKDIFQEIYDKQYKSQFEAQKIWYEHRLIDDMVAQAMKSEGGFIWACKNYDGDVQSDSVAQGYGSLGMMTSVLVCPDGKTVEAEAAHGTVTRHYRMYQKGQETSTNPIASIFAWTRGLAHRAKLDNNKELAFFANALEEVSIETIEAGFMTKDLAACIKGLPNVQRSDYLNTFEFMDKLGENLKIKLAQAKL

Take `COC(=O)CN(C)C(=O)c1ccc2nc(Nc3ccc(OC(F)(F)F)cc3)n([C@H]3C[C@@H](C)CC(C)(C)C3)c2c1` (racemic) [Example 2-9, (±) methyl N-methyl-N-[(2-{[4-(trifluoromethoxy)phenyl]amino}-1-[(cis)-3,3,5-trimethylcyclohexyl]-1H-benzimidazol-6-yl)carbonyl]glycinate]: the IC50 in test [1] (Homo sapiens, LN-229, 24 h) was 9000 nM; against IDH1 R132H enzyme it was 250 nM. The corresponding values for `C[C@@H]1C[C@H](n2c(Nc3ccc(OC(F)(F)F)cc3)nc3ccc(C(=O)N(C)C)cc32)CC(C)(C)C1` (racemic) [Example 2-20, (±) N,N-dimethyl-2-{[4-(trifluoromethoxy)phenyl]amino}-1-[(cis)-3,3,5-trimethylcyclohexyl]-1H-benzimidazole-6-carboxamide] are 2000 nM and 100 nM.

With `C[C@@H]1C[C@H](n2c(Nc3ccc(OC(F)(F)F)cc3)nc3ccc(C(=O)N(C)C)cc32)CC(C)(C)C1` (single isomer, unassigned; enantiomer a) [Example 2-20-1, (±) N,N-dimethyl-2-{[4-(trifluoromethoxy)phenyl]amino}-1-[(cis)-3,3,5-trimethylcyclohexyl]-1H-benzimidazole-6-carboxamide, enantiomer A], the IC50 was 1800 nM in test [1] and 80 nM against IDH1 R132H enzyme.

Compound `C[C@@H]1C[C@H](n2c(Nc3ccc(OC(F)(F)F)cc3)nc3ccc(C(=O)N4CCOCC4)cc32)CC(C)(C)C1` (single isomer, unassigned; enantiomer b) [Example 2-16-2, morpholin-4-yl(2-{[4-(trifluoromethoxy)phenyl]amino}-1-[(cis)-3,3,5-trimeethylcyclohexyl]-1H-benzimidazol-6-yl)methanone, enantiomer B] gave an IC50 in test [1] (Homo sapiens, LN-229, 24 h) of 400 nM. For the compound `C[C@@H]1C[C@H](n2c(Nc3ccc(OC(F)(F)F)cc3)nc3ccc(C(=O)N(C)C)cc32)CC(C)(C)C1` (single isomer, unassigned; enantiomer b) [Example 2-20-2, (±) N,N-dimethyl-2-{[4-(trifluoromethoxy)phenyl]amino}-1-[(cis)-3,3,5-trimethylcyclohexyl]-1H-benzimidazole-6-carboxamide, enantiomer B], the IC50 in test [1] worked out at 4300 nM; against IDH1 R132H enzyme, 200 nM.

For the origin of these results see patent US10138226B2, “Benzimidazol-2-amines as MIDH1 inhibitors” (Bayer Pharma Aktiengesellschaft, priority 2014, dated 2018).
